ChEMBL document CHEMBL4334537 (ACS Med Chem Lett, 2020)

Columns and labels:
[1] = Chemical stability of fluorescent labelled compound in PBS buffer at pH 7.4 and 22 degree C measured after 48 hrs by RP-HPLC analysis; assay type: physicochemical; conditions: pH 7.4, 48 h
[2] = Chemical stability of fluorescent labelled compound in PBS buffer assessed as compound decomposition at pH 7.4 and 22 degree C after > 24 hrs by RP-HPLC analysis; assay type: physicochemical; conditions: pH 7.4, 24 h

Compound | Stability [1] | Stability [2]
CC[C@H](C)[C@H](NC(=O)[C@H](Cc1ccc(O)cc1)NC(=O)[C@@H]1CCCN1C(=O)[C@H](CCCNC(=N)N)NC(=O)[C@@H](N)CCCNC(=N)NC(=O)NCCOCCOCCNC(=O)CCCCCN1/C(=C/C=C/C=C/C2=[N+](CCCCS(=O)(=O)[O-])c3ccccc3C2(C)C)C(C)(C)c2ccccc21)C(=O)N[C@@H](CC(C)C)C(=O)O.O=C(O)C(F)(F)F.O=C(O)C(F)(F)F.O=C(O)C(F)(F)F | Stable | –
CC[C@H](C)[C@H](NC(=O)[C@H](Cc1ccc(O)cc1)NC(=O)[C@@H]1CCCN1C(=O)[C@H](CCCNC(=N)N)NC(=O)[C@@H](N)CCCNC(=N)NC(=O)NCCCCNC(=O)CCCCCN1/C(=C/C=C/C=C/C2=[N+](CCCCS(=O)(=O)[O-])c3ccccc3C2(C)C)C(C)(C)c2cc(S(=O)(=O)O)ccc21)C(=O)N[C@@H](CC(C)C)C(=O)O.O=C(O)C(F)(F)F.O=C(O)C(F)(F)F | Stable | –
CC[C@H](C)[C@H](NC(=O)[C@H](Cc1ccc(O)cc1)NC(=O)[C@@H]1CCCN1C(=O)[C@H](CCCNC(=N)N)NC(=O)[C@@H](N)CCCNC(=N)NC(=O)NCCOCCOCC[n+]1c(C)cc(/C=C/C=C/c2ccc(N(C)C)cc2)cc1C)C(=O)N[C@@H](CC(C)C)C(=O)O.O=C(O)C(F)(F)F.O=C(O)C(F)(F)F.O=C(O)C(F)(F)F.O=C([O-])C(F)(F)F | – | Unstable
CC[C@H](C)[C@H](NC(=O)[C@H](Cc1ccc(O)cc1)NC(=O)[C@@H]1CCCN1C(=O)[C@H](CCCNC(=N)NC(=O)NCCOCCOCCNC(=O)CCCCCN1/C(=C/C=C/C=C/C2=[N+](CCCCS(=O)(=O)[O-])c3ccccc3C2(C)C)C(C)(C)c2cc(S(=O)(=O)O)ccc21)NC(=O)[C@@H](N)CCCNC(=N)N)C(=O)N[C@@H](CC(C)C)C(=O)O.O=C(O)C(F)(F)F.O=C(O)C(F)(F)F | Stable | –
